# US20170000784A1, “Autophagy Inhibitors” (priority 2013, published 2017)
# Read-outs that look alike come from different tables or passages of the source.
# What was measured:
# [1] = test system: U2OS cells; experiment: Cell viability (IC50) screen, CellTiter Glo, U2OS; format: cell-based; details: for IC50: U2OS cell viability, CellTiter Glo, 48 hours
# Experimental: (§1) U2OS cells were seeded at 500 cells per well in 5A McCoy's with 10% FBS in 96-well clear bottom, black-walled tissue culture plates. All melanoma cell lines (A375, UACC-91, UACC-257, UACC-502, UACC-903, UACC-1308, UACC-1940, UACC-2534, and UACC-3291) were seeded at 5,000 cells per well in RPMI 1640 with 10% FBS in 96-well clear bottom, black-walled tissue culture plates. After 24 hour incubation, cells were treated with VATG compounds in triplicate with a 10-point half log dose response from […] for 24 and 48 hours. Medium was removed and 2× CellTiter Glo (Promega, G7571) reagent mixed 1:1 with Opti-MEM (Invitrogen, 31985062) was added at 100 μL per well and incubated at room temperature for 15 minutes while rocking. 75 μL per well was moved to a white-walled 96-well plate and luminescence quantified using the 96 LUM program on an EnVision plate reader (PerkinElmer) and exported for analysis. All triplicate data points were averaged and luminescent readings for each treatment were normalized to vehicle control for change in viability. Dose response curves were input into SigmaPlot for IC50 calculations (Systat Software Inc).
# [2] = test system: A375 melanoma cell line; experiment: Cell viability (IC50) screen, CellTiter Glo, A375; format: cell-based; details: Homo sapiens
# Experimental: as §1
# [3] = test system: UACC-257 melanoma cell line; experiment: Cell viability (IC50) screen, CellTiter Glo, UACC-257; format: cell-based; details: Homo sapiens
# Experimental: as §1
# [4] = test system: UACC-502 melanoma cell line; experiment: Cell viability (IC50) screen, CellTiter Glo, UACC-502; format: cell-based; details: Homo sapiens
# Experimental: as §1
# [5] = test system: UACC-903 melanoma cell line; experiment: Cell viability (IC50) screen, CellTiter Glo, UACC-903; format: cell-based; details: Homo sapiens
# Experimental: as §1
# [6] = test system: UACC-1308 melanoma cell line; experiment: Cell viability (IC50) screen, CellTiter Glo, UACC-1308; format: cell-based; details: Homo sapiens
# Experimental: as §1
# [7] = test system: UACC-2534 melanoma cell line; experiment: Cell viability (IC50) screen, CellTiter Glo, UACC-2534; format: cell-based; details: Homo sapiens
# Experimental: as §1
# [8] = test system: UACC-3291 melanoma cell line; experiment: Cell viability (IC50) screen, CellTiter Glo, UACC-3291; format: cell-based; details: Homo sapiens
# Experimental: as §1
# [9] = test system: nine melanoma cell lines (A375, UACC-91, UACC-257, UACC-502, UACC-903, UACC-1308, UACC-1940, UACC-2534, UACC-3291); experiment: Cell viability (IC50) screen, panel of nine melanoma cell lines; format: cell-based; details: Homo sapiens, read-out: IC50 values, range over the melanoma cell lines
# Experimental: as §1
# Next, the sensitivity of each melanoma cell line to CQ, QN, Example 7, and Example 27 was assessed.
# [10] = test system: A375 cells; format: cell-based, human; details: for Relative Growth Inhibition Compound A / IC10 concentration: A375 soft agar; for Relative Growth Inhibition Compound A: single compound at IC10; for IC10 concentration: treated every other day for three weeks, single agent; for expected (additive) reduction of colony formation: combination with PLX-4032, Bliss Independence prediction; for reduction of colony formation: combinatorial treatment with PLX-4032, each at IC10, FIG. 18A
# From the text: After three weeks of treatment, cells were fixed and stained in 1% paraformaldehyde in 1×PBS containing 0.005% crystal violet overnight. Cells were destained with multiple washes of 1×PBS to remove background staining. Plates were scanned and images quantified using Nikon NIS Elements software. To quantify, each image was sharpened and an ROI of equal size drawn around each well. Intensity thresholds were set to include all pixels equal to or greater than the intensity of the mean background fluorescence. Objects within the threshold of each ROI were quantified using an automated object count function and exported for analysis. Object number was quantified to denote total colony formation. […] Additivity was established when the expected viability determined by the Bliss independence model was equal to the actual viability. This model was chosen since the effects of both compounds are mutually non-exclusive and follow first order Michaelis-Menten kinetics.
# To determine if the effects of each combination were more than, less than, or equal to additive, predictions for additivity were made using the Bliss Independence (Table 7), as disclosed in Yan H, Zhang B, Li S, Zhao Q. A formal model for analyzing drug combination effects and its application in TNF-alpha-induced NFkappaB pathway. BMC Syst. […] Drug combination studies and their synergy quantification using the Chou-Talalay method.
# [11] = U2OS IC50 relative to quinacrine
# [12] = A-375, A375 cell viability, CellTiter Glo, 48 hours, read-out: IC50
# [13] = UACC-257 cell viability, CellTiter Glo, read-out: IC50
# [14] = UACC-502 cell viability, CellTiter Glo, read-out: IC50
# [15] = UACC-903 cell viability, CellTiter Glo, read-out: IC50
# [16] = UACC-1308 cell viability, CellTiter Glo, read-out: IC50
# [17] = UACC-2534 cell viability, CellTiter Glo, read-out: IC50
# [18] = UACC-3291 cell viability, CellTiter Glo, read-out: IC50
# [19] = cell viability, nine melanoma cell lines
# [20] = Compound A combined with AZD-8055, each at IC10
# [21] = Compound A combined with PLX-4032, each at IC10
SMILES,"IC50 [2, 12]","IC50 [3, 13]","IC50 [4, 14]","IC50 [5, 15]","IC50 [6, 16]","IC50 [7, 17]","IC50 [8, 18]","IC50 [9, 19]",Relative Growth Inhibition Compound A [10],IC10 concentration [10],"Actual Growth Inhibition [10, 20]","Expected Bliss Additive Inhibition Value [10, 20]","Actual Growth Inhibition [10, 21]","Expected Bliss Additive Inhibition Value [10, 21]",expected (additive) reduction of colony formation [10],reduction of colony formation [10],other results
"COc1ccc2nc3cc(Cl)ccc3c(NCCCCN3CCN(C)CC3)c2c1 [Example 7, 6-Chloro-2-methoxy-N-(4-(4-methylpiperazin-1-yl)butyl)acridin-9-amine]",400 nM,2000 nM,1800 nM,1500 nM,2100 nM,2700 nM,800 nM,400 to 2700 nM,0.37,5 nM,0.57,0.44,0.64,0.49,49%,64%,"fold more cytotoxic than QN [1, 11]: 3.5; IC50 ([1]; read-out: IC50): 700 nM"
"CN1CCN(CCNc2c3c(nc4cc(Cl)ccc24)CCCC3)CC1 [Example 27, 6-Chloro-N-(2-(4-methylpiperazin-1-yl)ethyl)-1,2,3,4-tetrahydroacridin-9-amine]",–,–,–,–,–,–,–,–,0.37,2 nM,0.50,0.44,0.62,0.49,49%,62%,"times less cytotoxic than QN [1, 11]: 10; IC50 [1]: 27000 nM; IC50 ([2]; A-375, 48 h): 24300 nM; IC50 ([3]; UACC-257): 25300 nM; IC50 [4]: 42300 nM; IC50 ([5]; UACC-903): 27200 nM; IC50 [6]: 14900 nM; IC50 [7]: 26600 nM; IC50 [8]: 25300 nM; IC50 [9]: 15000 to 42000 nM"
"CCN(CC)CCCC(C)Nc1c2ccc(Cl)cc2nc2ccc(OC)cc12 (stereo not shown) [Quinacrine, quinacrine, reference compound]",2300 nM,3000 nM,2200 nM,2700 nM,3900 nM,2200 nM,2000 nM,1900 to 3900 nM,–,64 nM,0.54,–,0.59,–,–,59%,"IC50 ([1]; Homo sapiens, U2OS, 48 h, read-out: IC50): 2500 nM"
